The results in this text go back to patent publication US20240423995A1, “C-KIT INHIBITORS AND USES FOR TREATING AND PREVENTING INFLAMMATORY CONDITIONS” (GEORGETOWN UNIVERSITY, priority 2023, published 2024).

Assay [1] concerns the target T1, KIT (Homo sapiens, UniProt P10721).
T1 construct: purchased Eurofins DiscoverX Corporation
Briefly: KINOMEscan competition binding screen, KIT. The settings on record: for remaining binding at 10 µM: lower = stronger binding, read-out: % Ctrl @ 10 μM. The method, then:
(§1) The KINOMEscan™ screening platform (Eurofins DiscoverX Corporation, San Diego, USA) was performed using an active site-directed competition binding assay to quantitatively measure interactions between BK40143, BK40197, BK40195, and BK40196 and more than 450 human kinases and disease relevant mutant variants. […] Screening “hits” were identified by measuring the amount of kinase captured in test (BK40143, BK40197, BK40195, and BK40196) versus control samples by using a quantitative and ultra-sensitive qPCR method that detects the associated DNA label. BK40143, BK40197, BK40195, and BK40196 were screened at 10 μM concentration, and results for primary screen binding interactions were reported as ‘% Ctrl’ (POC), where lower numbers indicate stronger hits and calculated as follows:
(§2) [formula] • test compound=BK40143 or BK40197 or BK40195 or BK40196 • negative control=DMSO (100% Ctrl) • positive control=control compound (0% Ctrl)
(§3) Based on screening data of profiled compounds, a proportional relationship between primary screening results and corresponding compound/target affinities can be described as binding constants (Kd values) for the indicated ranges of percent of control (PoC) values, with tighter binding (higher affinity) interactions associated with lower PoC values, and weaker binding (lower affinity) associated with higher PoC values. Briefly, kinase-tagged T7 phage strains were grown in parallel in 24-well blocks in an E. coli host derived from the BL21 strain. E. coli were grown to log-phase and infected with T7 phage from a frozen stock (multiplicity of infection=0.4) and incubated with shaking at 32° C. until lysis (90-150 minutes). The lysates were centrifuged (6,000×g) and filtered ([…]) to remove cell debris. The remaining kinases were produced in HEK-293 cells and subsequently tagged with DNA for qPCR detection. Streptavidin-coated magnetic beads were treated with biotinylated small molecule ligands for 30 minutes at room temperature to generate affinity resins for kinase assays. The liganded beads were blocked with excess biotin and washed with blocking buffer (SeaBlock (Pierce), 1% BSA, 0.05% Tween 20, 1 mM DTT) to remove unbound ligand and to reduce non-specific phage binding. Binding reactions were assembled by combining kinases, liganded affinity beads, and test compounds in 1× binding buffer (20% SeaBlock, 0.17×PBS, 0.05% Tween 20, 6 mM DTT). Test compounds were prepared as 100× stocks in 100% DMSO and directly diluted into the assay. All reactions were performed in polypropylene 384-well plates in a final volume of 0.02 ml. The assay plates were incubated at room temperature with shaking for 1 hour and the affinity beads were washed with wash buffer (1×PBS, 0.05% Tween 20). The beads were then re-suspended in elution buffer (1×PBS, 0.05% Tween 20, 0.5 μM non-biotinylated affinity ligand) and incubated at room temperature with shaking for 30 minutes. The kinase concentration in the eluates was measured by qPCR.

The target of assay [2] is T2, KIT (V559D, T670I) (Homo sapiens, UniProt P10721, T670I/V559D).
T2 construct: purchased Eurofins DiscoverX Corporation
Briefly: KINOMEscan competition binding screen, KIT (V559D, T670I). The note with it: for remaining binding at 10 µM: read-out: % Ctrl @ 10 μM. The method, then:
as §1, §2, §3

The subject of assay [3] is LUVA cells. Put plainly: MC maturation in LUVA cells by flow cytometry (CD117, FceR1). The assay is classed as cell-based, human. The settings on record: 100 ng/mL SCF overnight, then 10 nM, 100 nM, 1 μM compound for 48 hours, vs DMSO. The method, then: A human mast cell (MC) line that arose spontaneously from a culture of non-transformed hematopoietic progenitor cells is described in J Allergy Clin Immunol, 2011, 127:815-22, which is incorporated herein by reference. The cells, termed LUVA cells, are an immortalized human MC line that can be maintained without stem cell factor (SCF) and that display high levels of normally signaling c-kit and FceR1.
The LUVA cells (Kerafast, EG1701-FP) were cultured in StemPro-34 serum-free media with 10% nutrient supplement, 1% L-glutamine, and 1% pen/strep and grown under normal atmospheric conditions (5% CO2). The cells were plated and treated with 100 ng/mL of SCF overnight and then treated with DMSO or an ascending dose of either BK40143, BK40196, or BK40197 for 48 hours, before collection and incubation with two flow-conjugated antibodies (PE anti-mouse CD117 (c-kit) and APC/fire 750 anti-mouse FceR1a) and subsequent analysis via flow cytometry. Group differences were compared using unpaired Student's t-tests.
Background: In flow cytometry, cells or beads pass a laser one at a time.

In assay [4] the test system is mast cells (blood). Briefly: MC maturation in blood of transgenic APP mice by flow cytometry. The assay is classed as in vivo. The settings on record: six weeks, vs DMSO. As to the method:
12-month-old transgenic APP mice were injected intraperitoneally with either 5 mg/kg BK40143 or DMSO for six weeks before whole-blood samples were collected into tubes with 1000 U/mL heparin. Blood samples were then treated with the three flow-conjugated antibodies and analyzed for maturation of mast cell progenitors to mature mast cells, as described in Examples 3 and 4. Group differences were compared using an unpaired Student's t-test.
12-month-old transgenic APP mice were injected intraperitoneally with either 25 mg/kg BK40195 or DMSO for six weeks before having whole-blood samples collected into tubes containing 1000 U/mL heparin. Blood samples were then treated with the three flow-conjugated antibodies and analyzed for maturation of mast cell progenitors to mature mast cells, as described in Example 5. Differences were compared using an unpaired Student's t-test.
12-month-old transgenic APP mice were injected intraperitoneally with either 45 mg/kg BK40197 or DMSO for six weeks before having whole-blood samples collected into tubes containing 1000 U/mL heparin. Blood samples were then treated with the three flow-conjugated antibodies and analyzed for maturation of mast cell progenitors to mature mast cells, as described in Example 5. Differences were compared using an unpaired Student's t-test.

Assay [5] concerns mast cell degranulation. Put plainly: Compound 48/80-induced mast cell degranulation in wild type C57BL/6 mice, toluidine blue blood smear. The assay is classed as in vivo. The settings on record: for mast cell degranulation 0.5-1.5 hours post-injection of C48/40: approximately two hours before I.P. injection of compound 48/80, toluidine blue blood smear; for effect on mast cell degranulation induced by C48/40: single I.P. injection two hours prior to compound 48/80 treatment, blood smear. The method, then:
Wild type C57BL/6J mice were treated with C48/40 to induce mast cell activation. Compound 48/80 is a polymer produced by the condensation of N-methyl-p-methoxyphenethylamine with formaldehyde. It promotes histamine release, and in biochemical research, compound 48/80 (for example, Catalog No. C2313, Sigma-Aldrich, St. Louis, MO) is used to promote mast cell degranulation. Male and female, 4-8 months old wild type C57BL/6 mice were treated only once with intraperitoneal (I.P.) injection of DMSO (control) or DMSO for 2 hours followed by C48/40 for 0.5-1.5 hours. Mice were injected with DMSO approximately 2 hours prior to injection (IP) with 50 μg C48/40 to show degranulation of mast cells 0.5-1.5 hours post-injection of C48/40. Animals were also injected with 20 mg/kg BK40197, BK40195 or BK40196; or 10 mg/kg BK40143 approximately two hours before I.P. injection of C48/40 to show the effects of the drugs on mast cell degranulation approximately 0.5-1.5 hours post-injection of C48/40. Drugs and C48/40 were injected on the same site. n=6 per treatment. Blood was collected and a smear was prepared and stained with Toluidine blue to show mast cell morphology.

As usually defined, the inhibition is the drop in the measured response relative to a control, in per cent.

T2 sequence (P10721 26-976 V559D/T670I): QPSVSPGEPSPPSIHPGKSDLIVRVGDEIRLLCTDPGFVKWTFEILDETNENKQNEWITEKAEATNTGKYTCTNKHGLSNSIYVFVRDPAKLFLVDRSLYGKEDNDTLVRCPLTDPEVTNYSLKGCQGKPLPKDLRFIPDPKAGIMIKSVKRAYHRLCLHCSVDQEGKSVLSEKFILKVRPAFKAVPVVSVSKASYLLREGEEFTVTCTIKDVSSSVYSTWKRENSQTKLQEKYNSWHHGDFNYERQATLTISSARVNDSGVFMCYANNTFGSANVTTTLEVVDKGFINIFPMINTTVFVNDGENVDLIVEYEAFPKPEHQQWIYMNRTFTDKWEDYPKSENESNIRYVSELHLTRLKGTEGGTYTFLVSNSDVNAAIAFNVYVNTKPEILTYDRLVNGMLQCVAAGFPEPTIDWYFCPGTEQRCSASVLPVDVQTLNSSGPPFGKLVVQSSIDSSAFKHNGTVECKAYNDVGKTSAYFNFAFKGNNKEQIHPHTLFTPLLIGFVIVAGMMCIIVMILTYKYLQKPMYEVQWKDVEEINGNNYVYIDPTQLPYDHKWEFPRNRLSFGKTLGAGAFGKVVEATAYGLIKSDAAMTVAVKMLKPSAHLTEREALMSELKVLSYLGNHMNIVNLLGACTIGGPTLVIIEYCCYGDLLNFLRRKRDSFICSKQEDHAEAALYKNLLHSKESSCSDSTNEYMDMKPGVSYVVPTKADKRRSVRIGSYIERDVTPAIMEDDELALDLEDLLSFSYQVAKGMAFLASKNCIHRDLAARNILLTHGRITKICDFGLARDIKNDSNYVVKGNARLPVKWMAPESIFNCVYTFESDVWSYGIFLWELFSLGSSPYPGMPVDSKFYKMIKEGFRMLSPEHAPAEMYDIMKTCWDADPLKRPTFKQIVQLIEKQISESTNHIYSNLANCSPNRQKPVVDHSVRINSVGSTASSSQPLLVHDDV
T1 sequence (P10721 26-976): as the sequence (P10721 26-976 V559D/T670I) above, with D534V, I645T counted along it

For `Cc1cccc(-c2cc3nccc(Nc4ccccc4)c3s2)c1` [BK40143], in assay [1], at 10 µM the inhibition was 100% and the remaining binding at 10 µM is 0%. In assay [2], the inhibition at 10 µM is 81% and the remaining binding at 10 µM was 19%. Also, the “number of immature MCs (CD117 only) compared to mature MCs (CD117 and FceR1)” value in assay [3] is “significantly increased”. For the same compound, in assay [4] (5 mg/kg intraperitoneal, p=0.03), the “ratio of immature MCs (CD117 only) to mature MCs (CD117 and FceR1)” value (from here on “ratio of immature MCs (CD117 only)”) was “significantly increased”. Further, the “mast cell degranulation 0.5-1.5 hours post-injection of C48/40” value in assay [5] (10 mg/kg) is reported as “absence of mast cell degranulation”. Further, in assay [5], the “effect on mast cell degranulation induced by C48/40” value (shortened to “effect”) is “significantly prevented mast cell degranulation”.
With `Cc1cccc(-c2cc3nccc(Nc4cccc(O)c4)c3s2)c1` [BK40196], in assay [1], the inhibition at 10 µM was 100% and the remaining binding at 10 µM was determined as 0%. For the same compound, in assay [2], the inhibition at 10 µM came out at 97.6% and the remaining binding at 10 µM stood at 2.4%. Moreover, in assay [3], the “number of immature MCs (CD117 only) compared to mature MCs (CD117 and FceR1)” value is recorded as “significantly increased”. Also, the “mast cell degranulation 0.5-1.5 hours post-injection of C48/40” value in assay [5] (10 mg/kg) was “absence of mast cell degranulation”. In addition, in assay [5], the “effect” value is “significantly prevented mast cell degranulation”.
As to `COc1cccc(Nc2ccnc3cc(-c4cccc(C)c4)sc23)c1` [BK40195], in assay [1], the inhibition at 10 µM came out at 100% and the remaining binding at 10 µM was 0%. For the same compound, in assay [2], the inhibition at 10 µM was determined as 97.5% and the remaining binding at 10 µM stood at 2.5%. In addition, the “ratio of immature MCs (CD117 only)” value in assay [4] (25 mg/kg intraperitoneal, p=0.04) is “significantly increased”. Also, the “mast cell degranulation 0.5-1.5 hours post-injection of C48/40” value in assay [5] (20 mg/kg) is reported as “absence of mast cell degranulation”. The “effect” value in assay [5] is “significantly prevented mast cell degranulation”.
Consider `Cc1cccc(-c2cc3nccc(N4CCOCC4)c3s2)c1` [BK40197], for which, in assay [1], the inhibition at 10 µM came to 97.7% and the remaining binding at 10 µM was found to be 0.3%. Further, in assay [2], the inhibition at 10 µM came to 80% and the remaining binding at 10 µM stood at 20%. Moreover, the “number of immature MCs (CD117 only) compared to mature MCs (CD117 and FceR1)” value in assay [3] is “significantly increased”. The “ratio of immature MCs (CD117 only)” value in assay [4] (45 mg/kg intraperitoneal, p=0.07) is reported as “significantly increased”. The “mast cell degranulation 0.5-1.5 hours post-injection of C48/40” value in assay [5] (20 mg/kg) is on record as “absence of mast cell degranulation”. In addition, the “effect” value in assay [5] is reported as “significantly prevented mast cell degranulation”.
